Measurements taken from patent US6495577B2, “Pesticidal composition” (Aventis CropScience GmbH, priority 2000, dated 2002).

Tested on: Trialeurodes vaporariorum
Experiment: Mortality of whitefly nymphs on sprayed French bean plants (greenhouse)
Format: in vivo
Details: 240 h, 10 days after application
Description: The invention is illustrated in the following Example which describe experiments in which a synergistic effect was observed. The desired concentration of the active ingredients was achieved by diluting, with water, the commercially available 25% by volume emulsifiable concentrate of deltamethrin and 20% by weight water soluble powder of acetamiprid, each of which contained conventional surfactants.
Two plants of two week old French beans (Phaseolus vulgaris) were infested with adult whitefly (Trialeurodes vaporariorum) for oviposition in a closed chamber. After 48 hours, the adults were blown off the plants so that only the eggs stayed at the surface of the leaves. The plants were placed in a greenhouse for 7 days to complete the development of the eggs to the larval stage L 1/2. The plants were then sprayed with the individual compounds and mixtures of the two, by hand with a spray gun, until complete coverage of the plant surfaces with the spray liquid was obtained. The plants were then placed in the greenhouse for a further 10 days. Two replicates of each test was carried. The mortality of the nymphs of Trialeurodes vaporadorum was estimated 10 days after application and the average of the two replicates calculated.
To indicate the existence of synergism between the active components, the results were treated in the manner described by Colby S. R., “Calculating Synergistic and Antagonistic Responses of Herbicide Combinations,” Weeds, 1967, 15, 20-22. In this method, the “expected” percent control, E, of the combination is given by the equation: [formula]
The LC50 in ppm of the mixtures was calculated and compared with the expected LC50 from the expected mortalities according to Colby.

Row | Compound | mortality at 0.1 ppm (acetamiprid 0,1 ppm alone) [%] | mortality at 0.03 ppm (acetamiprid 0,03 ppm alone) [%] | mortality at 0.3 ppm (acetamiprid 0,3 ppm alone) [%] | mortality at 1 ppm (acetamiprid 1 ppm alone) [%] | mortality at 3 ppm (acetamiprid 3 ppm alone) [%] | mortality at 0.01 ppm (deltamethrin 0,01 ppm alone) [%] | mortality at 0.1 ppm (deltamethrin 0,1 ppm alone) [%] | mortality at 0.02 ppm (deltamethrin 0,02 ppm alone) [%] | mortality at 0.2 ppm (deltamethrin 0,2 ppm alone) [%] | mortality at 0.06 ppm (deltamethrin 0,06 ppm alone) [%] | mortality at 0.6 ppm (deltamethrin 0,6 ppm alone) [%] | mortality at 0.33 ppm (deltamethrin 0,33 ppm alone) [%] | mortality at 1 ppm (deltamethrin 1 ppm alone) [%] | mortality at 0.006 ppm (deltamethrin 0,006 ppm alone) [%] | mortality at 0.033 ppm (deltamethrin 0,033 ppm alone) [%]
1 | C/C(=N\C#N)N(C)Cc1ccc(Cl)nc1 [acetamiprid, E-N^1-[(6-chloro-3-pyridylmethyl)]-N^2-cyano-N^1-methylacetamidine] | 1.25 | 0 | 7.5 | 23.8 | 56.2 |  |  |  |  |  |  |  |  |  | 
2 | CC1(C)[C@H](C(=O)O[C@H](C#N)c2cccc(Oc3ccccc3)c2)[C@@H]1C=C(Br)Br [deltamethrin, (S)-α-cyano-3-phenoxybenzyl (1R,3R)-3-(2,2-dibromvinyl)-2,2-dimethylcyclopropanecarboxylate] |  |  |  |  |  | 0.75 | 25 | 2.5 | 36.2 | 15 | 47.5 | 47.5 | 73.8 | 0 | 8.75
